Legend:
Experiment in all cases: Enzyme Inhibition Assay
Cathepsin K = biological target: T1, Cathepsin K (Oryctolagus cuniculus, UniProt P43236)
T1 sequence (P43236 whole entry): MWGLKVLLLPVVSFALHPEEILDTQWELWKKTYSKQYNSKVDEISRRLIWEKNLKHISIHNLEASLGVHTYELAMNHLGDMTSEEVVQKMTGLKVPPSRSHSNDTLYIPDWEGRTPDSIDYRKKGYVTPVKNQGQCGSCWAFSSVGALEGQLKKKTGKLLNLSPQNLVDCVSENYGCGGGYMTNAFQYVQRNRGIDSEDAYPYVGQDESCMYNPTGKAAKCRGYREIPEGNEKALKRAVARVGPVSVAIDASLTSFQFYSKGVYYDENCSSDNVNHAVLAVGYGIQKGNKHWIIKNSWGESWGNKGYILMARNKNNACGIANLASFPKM
Description: (§1) Prior to the addition of substrate, different concentrations of the inhibitor ranging from 100 uM to 0.2 nM were preincubated for 15 min with enzyme to allow the establishment of the enzyme-inhibitor complex. The proteolytic cleavage of N-acyl aminocoumarins by cathepsins was conducted in 96-well plate format and the plate read using a Spectramax (Molecular Devices) plate reader. The excitation wavelength was 355 nm and the emission wavelength was 460 nm for peptidyl-AMC substrates. The percent inhibition of the reaction was calculated from a control reaction containing only vehicle. IC50 curves were generated by fitting percent inhibition values to a four parameter logistic model (SOFTMAX PRO, Molecular Devices).

Cathepsin S = Cathepsin S (Homo sapiens, UniProt P25774); conditions: pH 6.5; 22 °C
Cathepsin S, sequence (P25774 whole entry): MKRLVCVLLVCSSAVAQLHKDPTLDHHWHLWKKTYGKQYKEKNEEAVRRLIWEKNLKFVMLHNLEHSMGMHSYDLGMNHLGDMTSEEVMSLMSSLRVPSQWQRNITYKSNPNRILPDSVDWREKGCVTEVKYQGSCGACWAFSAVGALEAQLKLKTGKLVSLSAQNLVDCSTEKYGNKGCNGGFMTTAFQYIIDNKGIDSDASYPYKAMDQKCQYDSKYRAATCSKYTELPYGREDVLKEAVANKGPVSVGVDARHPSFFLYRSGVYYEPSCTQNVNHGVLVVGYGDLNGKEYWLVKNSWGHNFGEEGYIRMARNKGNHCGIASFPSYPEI
Description: as §1

Procathepsin L = Procathepsin L (Homo sapiens, UniProt P07711)
Procathepsin L, sequence (P07711 whole entry): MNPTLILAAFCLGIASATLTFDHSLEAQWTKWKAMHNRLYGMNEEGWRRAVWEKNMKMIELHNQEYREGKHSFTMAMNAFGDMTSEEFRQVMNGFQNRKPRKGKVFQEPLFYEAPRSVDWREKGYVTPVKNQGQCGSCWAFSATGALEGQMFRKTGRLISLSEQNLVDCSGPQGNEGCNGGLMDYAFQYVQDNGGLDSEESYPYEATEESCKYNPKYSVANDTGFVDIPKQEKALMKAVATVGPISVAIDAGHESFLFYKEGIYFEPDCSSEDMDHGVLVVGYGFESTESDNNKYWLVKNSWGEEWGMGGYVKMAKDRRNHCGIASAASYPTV
Description: as §1

Row | IC50 (Cathepsin K) | IC50 (Cathepsin S) | IC50 (Procathepsin L) | SMILES
1 | > 10000 nM | – | – | N#CC1(NC(=O)[C@H](CS(=O)(=O)Cc2ccc(F)cc2)N[C@@H](c2ccccc2)C(F)(F)F)CC1 [(2R)-N-(1-cyanocyclopropyl)-3-{[(4-fluorophenyl)methane]sulfonyl}-2-{[(1S)-2,2,2-trifluoro-1-phenylethyl]amino}propanamide]
2 | > 10000 nM | – | – | N#CC1(NC(=O)[C@H](CS(=O)(=O)Cc2ccccc2-c2ccccc2)N[C@@H](c2ccc(F)cc2)C(F)(F)F)CC1 [(2R)-N-(1-cyanocyclopropyl)-3-{[(2-phenylphenyl)methane]sulfonyl}-2-{[(1S)-2,2,2-trifluoro-1-(4-fluorophenyl)ethyl]amino}propanamide]

The next lines start with the compound.

Row | SMILES | IC50 (Cathepsin K) | IC50 (Cathepsin S) | IC50 (Procathepsin L)
3 | N#CC1(NC(=O)[C@H](CS(=O)(=O)Cc2cccc(F)c2F)N[C@@H](c2ccccc2)C(F)(F)F)CC1 [(2R)-N-(1-cyanocyclopropyl)-3-{[(2,3-difluorophenyl)methane]sulfonyl}-2-{[(1S)-2,2,2-trifluoro-1-phenylethyl]amino}propanamide] | > 10000 nM | – | –
4 | N#CC1(NC(=O)[C@H](CS(=O)(=O)Cc2cccc(F)c2F)N[C@@H](c2ccc(F)cc2)C(F)(F)F)CC1 [(2R)-N-(1-cyanocyclopropyl)-3-{[(2,3-difluorophenyl)methane]sulfonyl}-2-{[(1S)-2,2,2-trifluoro-1-(4-fluorophenyl)ethyl]amino}propanamide] | > 10000 nM | – | –
5 | CC(C)(c1ccc(F)cc1)S(=O)(=O)C[C@H](N[C@@H](c1ccc(F)cc1)C(F)(F)F)C(=O)NC1(C#N)CC1 [(2R)-N-(1-cyanocyclopropyl)-3-{[2-(4-fluorophenyl)propane-2-]sulfonyl}-2-{[(1S)-2,2,2-trifluoro-1-(4-fluorophenyl)ethyl]amino}propanamide] | > 10000 nM | – | –
6 | CC(C)C[C@@H](NC(=O)N1CCOCC1)C(=O)N[C@@H](C=CS(=O)(=O)c1ccccc1)CCc1ccccc1 | 6.2 nM | 1.2 nM | –
7 | N#CC1(NC(=O)[C@H](CS(=O)(=O)Cc2c(Cl)cccc2Cl)N[C@@H](c2ccc(F)cc2)C(F)(F)F)CC1 [(2R)-N-(1-cyanocyclopropyl)-3-{[(2,6-dichlorophenyl)methane]sulfonyl}-2-{[(1S)-2,2,2-trifluoro-1-(4-fluorophenyl)ethyl]amino}propanamide] | > 10000 nM | 0.7 nM | 249 nM

Source: BindingDB's records for doi:10.1016/j.bmcl.2007.06.023 (Merck Frosst Centre For Therapeutic Research, 2007)
